Reference: patent publication US11542262B2, “Phosphatidylinositol 3-kinase inhibitors” (NANJING ZHENGXIANG PHARMACEUTICALS CO., LTD., priority 2019, dated 2023)
Values after ≈ are worked out from the molar mass of the structure shown.

Columns and labels:
[1] = Kinetic solubility test in PBS pH7.4; assay type: physicochemical; settings: for solubility at 2 h: aqueous buffer, kinetic from dmso stock, PBS pH 7.4, 25° C.
Procedure: 15 μL of stock solution (10 mM) was placed in order into their proper 96-well rack. 485 μL of PBS pH7.4 was added into each vial of the cap-less Solubility Sample plate. The assay was performed in singlet. Add one stir stick to each vial and seal using a molded PTFE/Silicone plug. […] After completion of the 2 hours, the samples from the Solubility Sample plate were transferred into the filter plate. all the samples were filtered using the Vacuum Manifold. Aliquot of 5 μL was taken from the filtrate followed by addition of 495 μL of a mixture of H2O and acetonitrile containing internal standard (1:1). A certain proportion of ultrapure water was used to dilute the diluent according to the peak shape. The dilution factor was changed according to the solubility values and the LC-MS signal response.
Preparation of 3 μM standards (STD): From the 10 mM DMSO STD plate, 6 μL was transferred into the remaining empty plate, and then 194 μL of DMSO was added to that plate to have a STD concentration of 300 μM. From the 300 μM DMSO STD plate, 5 μL was transferred into the remaining empty plate, and then 495 μL of a mixture of H2O and acetonitrile containing internal standard (1:1) was added to that plate to have a final STD concentration of 3 μM. A certain proportion of ultrapure water was used to dilute the diluent according to the peak shape. The concentrations of the standard samples were changed according to the LC-MS signal response.
Procedure for sample analysis: The plate was placed into the well plate autosampler. The samples were evaluated by LC-MS/MS analysis.
Data analysis: All calculations were carried out using Microsoft Excel.
The filtrate was analyzed and quantified against a standard of known concentration using LC coupled with mass spectral peak identification and quantitation. Solubility values of the test compound and control compound were calculated as follows:
[formula] • Any value of the compounds that was not within the specified limits was rejected and the experiment was repeated.

[2] = target: T1, PI3K gamma (Mus musculus, UniProt Q9JHG7); test: Raw264.7 cell assay: phosphorylation of AKT in C5a stimulated RAW264.7 cells (AlphaLISA); assay type: cell-based; settings: pAKT, read-out: PI3K gamma Raw264.7 cell (nM) cellular activity (IC50)
T1 construct: endogenous in cells; host or cells: RAW264.7
T1 sequence (Q9JHG7 whole entry): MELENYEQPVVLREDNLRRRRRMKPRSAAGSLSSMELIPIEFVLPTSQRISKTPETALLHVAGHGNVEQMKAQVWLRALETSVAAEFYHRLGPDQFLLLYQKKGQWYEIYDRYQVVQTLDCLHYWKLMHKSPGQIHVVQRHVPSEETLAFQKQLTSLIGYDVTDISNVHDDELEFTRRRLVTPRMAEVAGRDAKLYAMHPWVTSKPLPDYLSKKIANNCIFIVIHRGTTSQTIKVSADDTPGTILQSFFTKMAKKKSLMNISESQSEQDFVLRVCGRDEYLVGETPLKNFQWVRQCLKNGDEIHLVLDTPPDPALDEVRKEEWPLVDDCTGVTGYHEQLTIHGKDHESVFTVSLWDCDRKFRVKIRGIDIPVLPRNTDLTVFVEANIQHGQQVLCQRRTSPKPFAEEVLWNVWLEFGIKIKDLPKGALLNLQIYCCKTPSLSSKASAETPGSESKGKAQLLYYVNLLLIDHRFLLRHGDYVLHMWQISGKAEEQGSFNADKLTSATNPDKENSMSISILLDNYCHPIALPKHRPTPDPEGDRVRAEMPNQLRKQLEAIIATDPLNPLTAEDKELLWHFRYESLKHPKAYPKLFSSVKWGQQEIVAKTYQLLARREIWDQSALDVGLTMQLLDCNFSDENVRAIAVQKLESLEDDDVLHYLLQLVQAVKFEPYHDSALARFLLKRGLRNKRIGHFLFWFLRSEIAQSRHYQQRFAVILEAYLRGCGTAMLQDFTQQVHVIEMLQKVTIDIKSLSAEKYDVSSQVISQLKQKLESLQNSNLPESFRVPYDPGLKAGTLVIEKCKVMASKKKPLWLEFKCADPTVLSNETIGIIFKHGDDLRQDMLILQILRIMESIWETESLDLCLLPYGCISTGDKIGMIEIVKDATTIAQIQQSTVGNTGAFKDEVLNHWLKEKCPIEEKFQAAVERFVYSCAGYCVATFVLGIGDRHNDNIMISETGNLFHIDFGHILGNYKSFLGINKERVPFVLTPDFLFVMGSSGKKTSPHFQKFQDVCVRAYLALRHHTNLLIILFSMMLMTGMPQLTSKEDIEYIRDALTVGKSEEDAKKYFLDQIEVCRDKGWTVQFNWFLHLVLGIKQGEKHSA
T1 sequence (Q5SW28 whole entry partner): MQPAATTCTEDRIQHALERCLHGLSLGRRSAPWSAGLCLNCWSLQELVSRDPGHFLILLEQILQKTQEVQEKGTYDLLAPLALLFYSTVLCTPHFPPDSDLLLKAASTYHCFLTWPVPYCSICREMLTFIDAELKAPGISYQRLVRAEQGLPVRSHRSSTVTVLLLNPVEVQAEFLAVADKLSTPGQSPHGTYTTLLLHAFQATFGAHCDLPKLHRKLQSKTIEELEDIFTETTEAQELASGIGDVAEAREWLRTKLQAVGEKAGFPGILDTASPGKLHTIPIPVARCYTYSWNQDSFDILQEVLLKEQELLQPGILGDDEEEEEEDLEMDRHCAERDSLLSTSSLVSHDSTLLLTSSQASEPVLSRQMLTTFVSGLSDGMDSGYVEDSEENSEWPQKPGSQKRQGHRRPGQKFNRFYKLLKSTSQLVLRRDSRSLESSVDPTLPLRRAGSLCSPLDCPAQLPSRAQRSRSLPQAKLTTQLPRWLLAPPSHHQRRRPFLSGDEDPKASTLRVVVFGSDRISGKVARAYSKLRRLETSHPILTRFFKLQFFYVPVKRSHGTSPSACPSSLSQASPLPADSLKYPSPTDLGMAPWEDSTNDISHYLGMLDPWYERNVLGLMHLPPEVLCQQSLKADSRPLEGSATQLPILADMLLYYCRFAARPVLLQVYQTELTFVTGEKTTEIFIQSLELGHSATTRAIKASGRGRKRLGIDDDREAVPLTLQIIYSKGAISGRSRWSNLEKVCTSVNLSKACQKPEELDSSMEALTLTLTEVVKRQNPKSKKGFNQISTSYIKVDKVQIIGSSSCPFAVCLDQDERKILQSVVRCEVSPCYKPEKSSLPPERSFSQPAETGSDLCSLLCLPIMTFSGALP
Outline: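 Passage-15 RAW264.7 cells were plated and rested 2 h at 37 °C, then given compound for 30 min at 37 °C before C5a stimulation. Lysates went to phospho-AKT AlphaLISA with a 2 h dark incubation at 25 °C. IC50 came from a four-parameter logistic fit of inhibition against log concentration.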

[3] = target: T2, PI3K delta (Homo sapiens, UniProt O00329); test: Raji cell assay: phosphorylation of AKT in anti-IgM stimulated Raji cells (AlphaLISA); assay type: cell-based; settings: pAKT, read-out: PI3K delta Raji cell (nM) cellular activity (IC50)
T2 construct: endogenous in cells; host or cells: Raji
T2 sequence (O00329 whole entry): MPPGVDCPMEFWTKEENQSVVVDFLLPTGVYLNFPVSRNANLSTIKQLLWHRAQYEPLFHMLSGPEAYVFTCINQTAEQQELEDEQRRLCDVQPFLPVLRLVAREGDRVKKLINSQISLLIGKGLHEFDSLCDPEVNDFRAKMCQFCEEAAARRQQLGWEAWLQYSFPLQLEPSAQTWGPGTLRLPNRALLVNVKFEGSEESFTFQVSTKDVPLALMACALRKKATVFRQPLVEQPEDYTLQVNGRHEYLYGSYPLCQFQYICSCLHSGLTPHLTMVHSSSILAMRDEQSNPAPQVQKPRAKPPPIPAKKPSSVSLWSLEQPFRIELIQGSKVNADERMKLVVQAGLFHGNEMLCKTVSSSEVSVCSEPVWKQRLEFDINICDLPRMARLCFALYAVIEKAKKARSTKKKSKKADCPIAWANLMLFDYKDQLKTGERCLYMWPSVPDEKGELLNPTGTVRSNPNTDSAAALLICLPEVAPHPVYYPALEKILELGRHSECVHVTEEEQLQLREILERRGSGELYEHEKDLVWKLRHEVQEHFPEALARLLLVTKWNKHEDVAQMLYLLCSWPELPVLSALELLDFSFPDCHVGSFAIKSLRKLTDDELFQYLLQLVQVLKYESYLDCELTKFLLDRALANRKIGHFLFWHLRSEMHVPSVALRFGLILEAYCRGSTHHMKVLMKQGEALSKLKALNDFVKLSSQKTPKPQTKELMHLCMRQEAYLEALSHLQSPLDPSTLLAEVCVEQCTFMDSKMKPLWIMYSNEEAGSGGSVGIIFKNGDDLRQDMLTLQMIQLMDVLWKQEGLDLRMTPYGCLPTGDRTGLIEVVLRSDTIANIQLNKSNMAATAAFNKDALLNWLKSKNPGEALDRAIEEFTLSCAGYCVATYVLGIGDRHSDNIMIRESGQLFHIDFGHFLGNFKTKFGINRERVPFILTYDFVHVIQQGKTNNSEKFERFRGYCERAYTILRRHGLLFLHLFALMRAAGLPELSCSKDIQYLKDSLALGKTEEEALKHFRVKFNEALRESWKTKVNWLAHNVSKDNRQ
T2 sequence (P27986 whole entry partner): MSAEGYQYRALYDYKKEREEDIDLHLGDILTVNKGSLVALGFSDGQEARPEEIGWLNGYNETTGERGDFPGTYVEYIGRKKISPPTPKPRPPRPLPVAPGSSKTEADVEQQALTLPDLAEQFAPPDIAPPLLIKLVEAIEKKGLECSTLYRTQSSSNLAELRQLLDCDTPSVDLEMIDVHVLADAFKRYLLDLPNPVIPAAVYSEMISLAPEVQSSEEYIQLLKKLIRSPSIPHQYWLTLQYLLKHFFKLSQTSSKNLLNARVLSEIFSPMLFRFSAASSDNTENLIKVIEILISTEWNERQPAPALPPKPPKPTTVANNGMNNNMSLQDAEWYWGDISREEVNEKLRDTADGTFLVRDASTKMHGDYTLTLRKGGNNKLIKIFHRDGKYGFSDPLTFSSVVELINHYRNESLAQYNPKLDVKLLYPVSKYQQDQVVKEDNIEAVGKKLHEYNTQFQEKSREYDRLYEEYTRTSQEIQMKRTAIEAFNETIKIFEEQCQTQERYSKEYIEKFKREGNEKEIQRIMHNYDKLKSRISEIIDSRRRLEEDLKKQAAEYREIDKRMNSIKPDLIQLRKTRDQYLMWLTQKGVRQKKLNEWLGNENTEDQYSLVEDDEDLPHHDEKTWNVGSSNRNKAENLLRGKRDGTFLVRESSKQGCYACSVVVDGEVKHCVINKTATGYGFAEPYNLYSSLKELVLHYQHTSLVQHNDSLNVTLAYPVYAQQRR
Procedure: This study aims to determine the inhibitory effect of compounds on PI3K gamma and PI3K delta in corresponding cell based assays. PI3K gamma activity was reflected by phosphorylation of AKT in C5a stimulated RAW264.7 cells, and PI3K delta activity was reflected by phosphorylation of AKT in anti-IgM stimulated Raji cells. Phosphorylation of AKT in cells was determined using AlphaLISA technology from PerkinElmer.
Raji cell assay: Prepare Passage 11 Raji cell and add 6 μL of 60K cells per well in 384-well plate. Centrifuge at 500 RPM for 30 s and incubate for 2 hours at 37° C., 5% CO2. Add 30 nL compound by Echo and incubate for 30 min at 37° C. Add 2 μL of IgM (4×, 12 μg/mL) per well, centrifuge at 500 RPM for 30 s and incubate for 10 min at 37° C. Add 2 μL of 5× lysis buffer by Multidrop. Shake 10 min on a plate shaker. Add 5 μL acceptor mix provided in the kit. Centrifuge at 1000 RPM for 1 min. Add 5 μL donor mix provided in the kit. Centrifuge at 1000 RPM for 1 min. Then incubate for 2 hours at 25° C., keep the plate in dark. Read AlphaLISA signal on Envision.
Data analysis: Fit the cpd IC50 from non-linear regression equation. Y=Bottom+(Top−Bottom)/(1+10^((Log IC50−X)*Hill Slope)) X: Log of cpd concentration Y: Inhibition

[4] = Pharmacokinetics in dogs; assay type: in vivo; settings: IV bolus at 1 mg/kg and PO at 5 mg/kg; for bioavailability / clearance / half-life: male, dog, plasma; for bioavailability: beagle, oral, 5 mg/kg, read-out: F (%) oral bioavailability
Procedure: Dosing solutions were prepared at 1 mg/mL in 5% DMSO/40% PEG400/55% water. A dosing solution was administered to male beagle dogs (Approximately 9-14 kg, 3 dogs each group) via intravenous (IV) bolus at 1 mg/kg and by oral gavage (PO) at 5 mg/kg. The dosing volume was 1 mL/kg for IV administration and 5 mL/kg for oral gavage. Blood samples (˜0.3 mL each time point) were collected into tubes containing potassium ethylenediaminetetraacetic acid (K2EDTA) as the anticoagulant at 0.033, 0.083, 0.25, 0.5, 1, 2, 4, 8 and 24 hours post dose for IV administration and 0.083, 0.25, 0.5, 1, 2, 4, 8 and 24 hours post dose for PO administration. The blood samples were then centrifuged for 5 minutes in a centrifuge refrigerated at 4° C. The resultant plasma samples were analyzed using LC/MS/MS to determine concentrations of a test compound. Non-compartmental model with WinNonlin (Phoenix™, version 6.1) software was used to calculate pharmacokinetic (PK) parameters.

SMILES | solubility at 2 h [1] | fold improvement over AZ-17 in kinetic solubility test ([1]; physiologic pH) | IC50 [2] | IC50 [3] | F (%) oral bioavailability ([4]; beagle dogs) | Vssobs ([4]; beagle dogs) | bioavailability [4] | clearance ([4]; beagle dogs) | half-life ([4]; beagle dogs)
CC(=O)Nc1nc(C)c(-c2cc3c(c(NS(C)(=O)=O)n2)C(=O)N([C@@H](C)C2CC2)C3)s1 [Compound 20, (S)-N-(5-(2-(1-cyclopropylethyl)-4-(methylsulfonamido)-3-oxo-2,3-dihydro-1H-pyrrolo[3,4-c]pyridin-6-yl)-4-methylthiazol-2-yl)acetamide] | 240 µM (≈ 108 µg/mL) | > 200 fold | 4.3 nM | 2160 nM | 108% | 2.1 L/kg | 107% | 6.1 mL/min/kg | 7.2 h
CC(=O)Nc1nc(C)c(-c2cc3c(c(N4CCOCC4)n2)C(=O)N([C@@H](C)C2CC2)C3)s1 [Compound 34, (S)-N-(5-(2-(1-cyclopropylethyl)-4-morpholino-3-oxo-2,3-dihydro-M-pyrrolo[3,4-c]pyridin-6-yl)-4-methylthiazol-2-yl)acetamide] | 9.6 µM (≈ 4.24 µg/mL) | – | 1.6 nM | 1960 nM | – | 2.7 L/kg | > 68% | 4.5 mL/min/kg | 9.1 h
